The structures appear in SMILES notation.

Among the data in article PMC8895403, “A Strategy to Select Macrocyclic Peptides Featuring Asymmetric Molecular Scaffolds as Cyclization Units by Phage Display” (Journal of the American Chemical Society, 2022) are ring closure, product found values, retold here.

The data set can be described thus: Head-to-side-chain cyclisation: Cys S-alkylation with bifunctional aldehyde linker 1-4 (benzyl bromide or bromoacetamide), then intramolecular reductive amination of the N-terminal amine with NaBH3CN (one pot, crude peptides). The following applies: the molecule shown is the open-chain precursor, 100 mM MOPS pH 6.5 / about 20% MeCN, TCEP, 0.5 mM, 4.0 °C, 24.0 h, 2 steps, scale: 1 = smooth/efficient conversion to macrocycle as major UPLC-MS species, <1 = partial, mixture.

In the case of `CC(C)[C@H](NC(=O)[C@H](C)N)C(=O)N[C@@H](CO)C(=O)N[C@@H](CO)C(=O)NCC(=O)NCC(=O)N[C@@H](CO)C(=O)NCC(=O)N[C@@H](CSCc1ccc(C=O)cc1)C(=O)N[C@@H](Cc1c[nH]c2ccccc12)C(=O)N[C@@H](C)C(N)=O`, the ring closure, product found (34-membered ring) was 1. With `COc1ccc(C=O)cc1NC(=O)CSC[C@H](NC(=O)CNC(=O)CNC(=O)[C@H](CO)NC(=O)[C@H](CO)NC(=O)[C@@H](NC(=O)[C@@H](N)CCCCN)C(C)C)C(=O)N[C@@H](Cc1c[nH]c2ccccc12)C(=O)N[C@@H](C)C(N)=O`, the ring closure, product found (29-membered ring) amounted to 1.

Consider `CC(C)[C@H](NC(=O)[C@H](C)N)C(=O)N[C@@H](CO)C(=O)N[C@@H](CO)C(=O)NCC(=O)NCC(=O)N[C@@H](CO)C(=O)NCC(=O)N[C@@H](CSCC(=O)Nc1ccc(C=O)cc1)C(=O)N[C@@H](Cc1c[nH]c2ccccc12)C(=O)N[C@@H](C)C(N)=O`, for which the ring closure, product found (36-membered ring) came out at 1. Same read-out and setting: in the case of `CC(=O)N[C@@H](CCCCN)C(=O)N[C@H](C(=O)N[C@@H](CO)C(=O)N[C@@H](CO)C(=O)NCC(=O)NCC(=O)N[C@@H](CSCC(=O)Nc1ccc2cc(C=O)ccc2c1)C(=O)N[C@@H](Cc1c[nH]c2ccccc12)C(=O)N[C@@H](C)C(N)=O)C(C)C` it was < 1. Turning to `CC(C)[C@H](NC(=O)[C@H](C)N)C(=O)N[C@@H](CC(N)=O)C(=O)N[C@@H](CCC(=O)O)C(=O)N[C@@H](CCCCN)C(=O)N[C@@H](Cc1c[nH]cn1)C(=O)N[C@@H](Cc1ccc(O)cc1)C(=O)N[C@@H](CSCC(=O)Nc1ccc(C=O)cc1)C(=O)N[C@@H](Cc1c[nH]c2ccccc12)C(=O)N[C@@H](C)C(N)=O`, the ring closure, product found (33-membered ring) worked out at 1. Turning to `COc1ccc(C=O)cc1NC(=O)CSC[C@H](NC(=O)[C@H](Cc1ccc(O)cc1)NC(=O)[C@H](Cc1c[nH]cn1)NC(=O)[C@H](CCCCN)NC(=O)[C@H](CCC(=O)O)NC(=O)[C@H](CC(N)=O)NC(=O)[C@@H](NC(=O)[C@H](C)N)C(C)C)C(=O)N[C@@H](Cc1c[nH]c2ccccc12)C(=O)N[C@@H](C)C(N)=O`, for the setting “32-membered ring”, the ring closure, product found stood at 1. With `CC(C)[C@H](NC(=O)[C@H](C)N)C(=O)N[C@@H](CO)C(=O)N[C@@H](CO)C(=O)NCC(=O)NCC(=O)N[C@@H](CSCC(=O)Nc1ccc(C=O)cc1)C(=O)N[C@@H](Cc1c[nH]c2ccccc12)C(=O)N[C@@H](C)C(N)=O`, the ring closure, product found (30-membered ring) was 1.

As to `CC(C)[C@H](NC(=O)[C@@H](N)CCCCN)C(=O)N[C@@H](CO)C(=O)N[C@@H](CO)C(=O)NCC(=O)NCC(=O)N[C@@H](CSCC(=O)Nc1ccc2cc(C=O)ccc2c1)C(=O)N[C@@H](Cc1c[nH]c2ccccc12)C(=O)N[C@@H](C)C(N)=O`, where the note is “32-membered ring”, the ring closure, product found was 1. On to `COc1ccc(C=O)cc1NC(=O)CSC[C@H](NC(=O)CNC(=O)[C@H](CO)NC(=O)CNC(=O)CNC(=O)[C@H](CO)NC(=O)[C@H](CO)NC(=O)[C@@H](NC(=O)[C@H](C)N)C(C)C)C(=O)N[C@@H](Cc1c[nH]c2ccccc12)C(=O)N[C@@H](C)C(N)=O`, for which the ring closure, product found (35-membered ring) was determined as 1. In the case of `COc1ccc(C=O)cc1NC(=O)CSC[C@H](NC(=O)CNC(=O)CNC(=O)[C@H](CO)NC(=O)[C@H](CO)NC(=O)[C@@H](NC(=O)[C@H](C)N)C(C)C)C(=O)N[C@@H](Cc1c[nH]c2ccccc12)C(=O)N[C@@H](C)C(N)=O`, the ring closure, product found (29-membered ring) was found to be 1. Regarding `CC(C)[C@H](NC(=O)[C@H](C)N)C(=O)N[C@@H](CO)C(=O)N[C@@H](CO)C(=O)NCC(=O)NCC(=O)N[C@@H](CO)C(=O)NCC(=O)N[C@@H](CSCC(=O)Nc1ccc2cc(C=O)ccc2c1)C(=O)N[C@@H](Cc1c[nH]c2ccccc12)C(=O)N[C@@H](C)C(N)=O`, the ring closure, product found (38-membered ring) worked out at 1.

For the compound `COc1ccc(C=O)cc1NC(=O)CSC[C@H](NC(=O)CNC(=O)CNC(=O)[C@H](CO)NC(=O)[C@H](CO)NC(=O)[C@@H](NC(=O)[C@H](CCCCN)NC(C)=O)C(C)C)C(=O)N[C@@H](Cc1c[nH]c2ccccc12)C(=O)N[C@@H](C)C(N)=O`, under “33-membered ring”, the ring closure, product found was < 1. `CC(C)[C@H](NC(=O)[C@@H](N)CCCCN)C(=O)N[C@@H](CO)C(=O)N[C@@H](CO)C(=O)NCC(=O)NCC(=O)N[C@@H](CSCc1ccc(C=O)cc1)C(=O)N[C@@H](Cc1c[nH]c2ccccc12)C(=O)N[C@@H](C)C(N)=O` [H-Lys-Val-Ser-Ser-Gly-Gly-Cys(CH2-C6H4-4-CHO)-Trp-Ala-NH2]: the ring closure, product found (28-membered ring) came to 1. `CC(C)[C@H](NC(=O)[C@H](C)N)C(=O)N[C@@H](CO)C(=O)N[C@@H](CO)C(=O)NCC(=O)NCC(=O)N[C@@H](CSCC(=O)Nc1ccc2cc(C=O)ccc2c1)C(=O)N[C@@H](Cc1c[nH]c2ccccc12)C(=O)N[C@@H](C)C(N)=O`: the ring closure, product found (32-membered ring) was found to be 1. Turning to `CC(C)[C@H](NC(=O)[C@H](C)N)C(=O)N[C@@H](CO)C(=O)N[C@@H](CO)C(=O)NCC(=O)NCC(=O)N[C@@H](CSCc1ccc(C=O)cc1)C(=O)N[C@@H](Cc1c[nH]c2ccccc12)C(=O)N[C@@H](C)C(N)=O` [H-Ala-Val-Ser-Ser-Gly-Gly-Cys(CH2-C6H4-4-CHO)-Trp-Ala-NH2], the ring closure, product found (28-membered ring) worked out at 1. Consider `CC(C)[C@H](NC(=O)[C@H](C)N)C(=O)N[C@@H](CC(N)=O)C(=O)N[C@@H](CCC(=O)O)C(=O)N[C@@H](CCCCN)C(=O)N[C@@H](Cc1c[nH]cn1)C(=O)N[C@@H](Cc1ccc(O)cc1)C(=O)N[C@@H](CSCc1ccc(C=O)cc1)C(=O)N[C@@H](Cc1c[nH]c2ccccc12)C(=O)N[C@@H](C)C(N)=O`, for which the ring closure, product found (31-membered ring) came to 1.

Turning to `CC(C)[C@H](NC(=O)[C@@H](N)CCCCN)C(=O)N[C@@H](CO)C(=O)N[C@@H](CO)C(=O)NCC(=O)NCC(=O)N[C@@H](CSCC(=O)Nc1ccc(C=O)cc1)C(=O)N[C@@H](Cc1c[nH]c2ccccc12)C(=O)N[C@@H](C)C(N)=O`, the ring closure, product found (30-membered ring) is 1. `CC(=O)N[C@@H](CCCCN)C(=O)N[C@H](C(=O)N[C@@H](CO)C(=O)N[C@@H](CO)C(=O)NCC(=O)NCC(=O)N[C@@H](CSCC(=O)Nc1ccc(C=O)cc1)C(=O)N[C@@H](Cc1c[nH]c2ccccc12)C(=O)N[C@@H](C)C(N)=O)C(C)C`: the ring closure, product found (34-membered ring) was < 1. On to `CC(C)[C@H](NC(=O)[C@H](C)N)C(=O)N[C@@H](CC(N)=O)C(=O)N[C@@H](CCC(=O)O)C(=O)N[C@@H](CCCCN)C(=O)N[C@@H](Cc1c[nH]cn1)C(=O)N[C@@H](Cc1ccc(O)cc1)C(=O)N[C@@H](CSCC(=O)Nc1ccc2cc(C=O)ccc2c1)C(=O)N[C@@H](Cc1c[nH]c2ccccc12)C(=O)N[C@@H](C)C(N)=O`, for which the ring closure, product found (35-membered ring) amounted to 1. As to `CC(=O)N[C@@H](CCCCN)C(=O)N[C@H](C(=O)N[C@@H](CO)C(=O)N[C@@H](CO)C(=O)NCC(=O)NCC(=O)N[C@@H](CSCc1ccc(C=O)cc1)C(=O)N[C@@H](Cc1c[nH]c2ccccc12)C(=O)N[C@@H](C)C(N)=O)C(C)C` [Ac-Lys-Val-Ser-Ser-Gly-Gly-Cys(CH2-C6H4-4-CHO)-Trp-Ala-NH2], for the setting “32-membered ring”, the ring closure, product found is < 1.
